Holding throughout (type): cell-based, human
One test deals with TNF-α. As to the kind of experiment: ELISA of TNF-α secretion by cultured PBMC. The conditions noted are these: PMA (with ionomycin) alone. As to the method:
(§1) According to this exemplary embodiment, phyto-percolate and the flow-through/F4 were tested as they appeared in their original concentrations right off the columns, only diluted 1:20 and 1:100 as described herein. The culture of peripheral blood mononuclear cells (“PBMC”) is prepared from two vials of frozen PBMCs that were obtained from normal healthy human subjects by a commercial vendor, and were added to 2×10 ml medium and centrifuged. PBMCs were resuspended and cultured in RPMI1640/5% FBS for 24 h. (1 vial of frozen cells in 11 ml medium).
(§2) Treatment agents for this exemplary method comprise three agents: unseparated phyto-percolate (‘PAZ’), fraction 3 (‘F3’), fraction 4 (‘F4’). Treatment concentration for each was 1:20 and 1:100. […]
(§3) According to this exemplary embodiment, seeding, treatment, and detection are accomplished by the following steps. Two dishes of PBMCs were combined and the small amount of PBMCs was stained with 0.4% Trypan blue and the cell number of PBMCs was counted using known techniques.
(§4) In this embodiment, an enzyme linked immune-sorbent assay (“ELISA”) analysis of inflammatory cytokine secretion, (a protocol provided in a commercial kit for the parallel quantification of the production of human cytokines), was employed. […]
(In an ELISA, binding on a coated surface is turned into a signal by an enzyme label.)

For another test, the system named is IFN-γ. As to the kind of experiment: ELISA of IFN-γ secretion by cultured PBMC. The conditions noted are these: PMA (with ionomycin) alone. How it is done:
as §1, §2, §3, §4

The test system of another test is GM-CSF. The test is described as follows: ELISA of GM-CSF secretion by cultured PBMC. The conditions noted are these: PMA (with ionomycin) alone. How it is done: as §1, §2, §3, §4
Another test deals with IL-2. The test is described as follows: ELISA of IL-2 secretion by cultured PBMC. The conditions noted are these: PMA (with ionomycin) alone. As to the method:
as §1, §2, §3, §4

The next test deals with IL-17A. As to the kind of experiment: ELISA of IL-17A secretion by cultured PBMC. The note with it: PMA (with ionomycin) alone. As to the method:
as §1, §2, §3, §4

The test system of another test is NF-κB. As to the kind of experiment: Electrophoretic mobility shift assay (EMSA) of NF-κB DNA-binding activity in nuclear protein of cultured PBMC. The note with it: TNF-α (50 ng/ml) added alone 1 h before harvesting, untreated control = 1.0. As to the method: as §1
Treatment agents for this exemplary method comprise three agents: unseparated phyto-percolate (‘PAZ’), fraction 3 (‘F3’), fraction 4 (‘F4’). Treatment concentration for each was 1:20 and 1:100. An exemplary sample preparation method for each agent by dilution is as follows: First, a 1:10 dilution is prepared by combining 0.7 ml agent (PAZ, F3, or F4)+6.3 ml RPMI1640/5% FBS to obtain a total volume of 7 ml of a 1:10 solution. […]
Analysis of the effect of phyto-percolate or fractions isolated therefrom on the DNA-binding activity of NF-κB in the nuclear protein fractions of the cultured PBMC was determined as follows in this exemplary embodiment: approximately 18.26 mL of suspended PBMC were added to approximately 18 mL of culture medium and 2 mL of this cell suspension (2,718,000 cells in 2 mL) were seeded into each 60 mm culture dish. […]
A general note: Mobility shift assays separate free from complexed probe on a gel.

Take `CCCCCCCCCCCCCC(=O)O[C@@H]1[C@@H](C)[C@@]2(O)[C@@H](C=C(CO)C[C@]3(O)C(=O)C(C)=C[C@@H]23)[C@@H]2C(C)(C)[C@]12OC(C)=O` [PMA, phorbol myristate acetate]: the “production and secretion of TNF-α” value in the test on TNF-α is recorded as “approximately 50 pg/100,000 cells”. Also, the IFN-γ secreted result in the test on IFN-γ is “approximately 70 pg/100,000 cells”. Besides, the “production and secretion of GM-CSF” value with GM-CSF was “approximately 50 pg/100,000 cells”. Besides, in the test with IL-2, the “quantity of IL-2 produced” value was “approximately 125 pg/100,000 cells”. The “production and secretion of IL-17A” value in the test with IL-17A was “approximately 3 pg/100,000 cells”.
In the case of TNF-α, in the test on NF-κB, the “DNA-binding activity of NF-κB (relative level)” value was about 2.0 relative unit.

The values above are taken from patent publication US10765732B2, “Compounds and methods for affecting cytokines” (Zivo Bioscience, Inc., priority 2013, dated 2020).
